Here are results for 3 compounds from patent US6509328B1, “Glutamate receptor antagonists” (Hoffmann-La Roche Inc., priority 1999, dated 2003).

Molecules are shown by their SMILES.

One may read the Ki as a dissociation constant, usually derived from enzyme kinetics or from competition with a known ligand. The low end stands for tighter binding, the high end for weaker binding. The term melting point denotes the temperature, or range, at which the solid turns liquid.

For data set [1], the target named is T1, rat mGlu2 receptor (Rattus norvegicus, UniProt P31421).
T1 construct: expressed in transfected cells; vector pcDNA I-amp (pcD1mGR2)
Briefly: [3H]-LY354740 binding on mGlu2 transfected CHO cell membranes. The text has this: [^3H]-LY354740 Binding on mGlu2 Transfected CHO Cell Membranes
Transfection and Cell Culture
cDNA encoding the rat mGlu2 receptor protein in pBluescript II was obtained from Prof. S. Nakanishi (Kyoto, Japan), and subcloned into the eukaryotic expression vector pcDNA I-amp from Invitrogen (N V Leek, The Netherlands). This vector construct (pcD1mGR2) was co-transfected with a psvNeo plasmid encoding the gene for neomycin resistance, into CHO cells by a modified calcium phosphate method described by Chen & Okayama (1988). The cells were maintained in Dulbecco's Modified Eagle medium with reduced L-glutamine (2 mM final concentration) and 10% dialysed foetal calf serum from Gibco BRL (Basel, Switzerland). Selection was made in the presence of […] (1000 ug/ml final). Clones were identified by reverse transcription of 5 μg total RNA, followed by PCR using mGlu2 receptor specific primers 5′-[…]-3′ and 5′-[…]-3′ in 60 mM Tris HCl (pH 10), 15 mM (NH4)2SO4, 2 mM MgCl2, 25 units/ml Taq Polymerase with 30 cycles annealing at 60° C. for 1 min., extension at 72° C. for 30s, and 1 min. 95° C. denaturation.
Cells, cultured as above, were harvested and washed three times with cold PBS and frozen at −80° C. The pellet was resuspended in cold 20 mM HEPES-NaOH buffer containing 10 mM EDTA (pH 7.4), and homogenised with a polytron (Kinematica, AG, Littau, Switzerland) for 10s at 10,000 rpm. After centrifugation for 30 min. at 4° C., the pellet was washed once with the same buffer, and once with cold 20 mM HEPES-NaOH buffer containing 0.1 mM EDTA, (pH 7.4). Protein content was measured using the Pierce method (Socochim, Lausanne, Switzerland) using bovine serum albumin as standard.
After thawing, the membranes were resuspended in cold 50 mM Tris-HCl buffer containing 2 mM MgCl2 and 2 mM CaCl2, (pH 7) (binding buffer). The final concentration of the membranes in the assays was 25 μg protein/ml. Inhibition experiments were performed with membranes incubated with 10 nM [^3H]-LY354740 at room temperature, for 1 hour, in presence of various concentrations of the compound to be tested. Following the incubations, membranes were filtered onto Whatmann GF/C glass fiber filters and washed 5 times with cold binding buffer. Non specific binding was measured in the presence of 10 μM DCG IV (TOCRIS No. 0975). After transfer of the filters into plastic vials containing 10 ml of Ultima-gold scintillation fluid (Packard, Zürich, Switzerland), the radioactivity was measured by liquid scintillation in a Tri-Carb 2500 TR counter (Packard, Zürich, Switzerland).
The inhibition curves were fitted with a four parameter logistic equation giving IC50 values, and Hill coefficients.

T1 sequence (P31421 19-872): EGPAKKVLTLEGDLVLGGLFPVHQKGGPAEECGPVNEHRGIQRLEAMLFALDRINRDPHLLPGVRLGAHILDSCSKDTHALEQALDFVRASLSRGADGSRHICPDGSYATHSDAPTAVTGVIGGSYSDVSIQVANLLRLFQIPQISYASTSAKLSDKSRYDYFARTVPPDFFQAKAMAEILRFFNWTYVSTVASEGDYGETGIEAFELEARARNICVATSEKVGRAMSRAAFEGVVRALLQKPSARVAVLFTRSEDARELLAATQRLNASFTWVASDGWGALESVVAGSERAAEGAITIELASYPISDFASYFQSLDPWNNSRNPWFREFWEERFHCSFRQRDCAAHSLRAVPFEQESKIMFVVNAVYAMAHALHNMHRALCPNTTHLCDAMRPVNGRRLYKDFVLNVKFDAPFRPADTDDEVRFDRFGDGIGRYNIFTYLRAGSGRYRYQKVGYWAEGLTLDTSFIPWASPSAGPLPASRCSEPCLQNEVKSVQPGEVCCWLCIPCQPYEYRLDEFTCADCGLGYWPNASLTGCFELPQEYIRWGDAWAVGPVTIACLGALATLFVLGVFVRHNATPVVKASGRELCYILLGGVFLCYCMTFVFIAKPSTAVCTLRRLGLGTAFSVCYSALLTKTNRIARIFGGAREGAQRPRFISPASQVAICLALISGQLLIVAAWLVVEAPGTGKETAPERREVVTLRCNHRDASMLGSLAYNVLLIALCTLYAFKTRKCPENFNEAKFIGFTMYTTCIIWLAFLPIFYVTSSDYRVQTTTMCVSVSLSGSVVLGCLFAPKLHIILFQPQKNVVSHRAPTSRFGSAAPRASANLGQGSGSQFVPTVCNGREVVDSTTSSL

The compound `Cc1cc(-c2cccc(C3=Nc4ccc(-c5ccc(F)cc5)cc4NC(=O)C3)c2)on1` [Example 117, 8-(4-Fluoro-phenyl)-4-[3-(3-methyl-isoxazol-5-yl)-phenyl]-1,3-dihydro-benzo[b][1,4]diazepin-2-one] returned a melting point above 250 °C. In addition, in data set [1], affinity was put at a Ki of 289 nM.
Taken in the same sequence, the figures for `O=C1CC(c2csc(-n3ccnc3)n2)=Nc2ccc(-c3ccccc3F)cc2N1` [Example 124, 8-(2-Fluoro-phenyl)-4-(2-imidazol-1-yl-thiazol-4-yl)-1,3-dihydro-benzo [b][1,4]diazepin-2-one] were 194 to 197 °C and 298 nM.
On to `Cc1nnc(-c2cccc(C3=Nc4ccc(-c5ccc(F)cc5)cc4NC(=O)C3)c2)n1C` [Example 166, 4-[3-(4,5-Dimethyl-4H-[1,2,4]triazol-3-yl)-phenyl]-8-(4-fluoro-phenyl)-1,3-dihydro-benzo[b][1,4]diazepin-2-one], for which the melting point is 238 to 240 °C (dec.). The same compound displayed an inhibitory constant (Ki) in data set [1] of 108 nM.
